Laboratory results published in patent US12655116B2, “Substituted isophthalic acid diamides” (Bayer Aktiengesellschaft, priority 2020, dated 2026).

What was measured:
ABUTH [1] = experiment: Pre-emergence herbicidal action against ABUTH; type: in vivo, Abutilon theophrasti
Outline: (§1)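 Greenhouse pots of sandy loam held seeds covered with soil, onto which the compound was applied before emergence. An aqueous suspension or emulsion of WP or EC was used at 600 to 800 l/ha with 0.2% wetting agent. Percent damage was judged visually at 3 weeks.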

ALOMY [2] = experiment: Pre-emergence herbicidal action against ALOMY; type: in vivo, Alopecurus myosuroides; settings: 80 g/ha, pre-emergence, scored visually after 3 weeks vs untreated controls (100% = plants have died, 0% = like control plants)
Outline: as §1

AMARE [3] = experiment: Pre-emergence herbicidal action against AMARE; type: in vivo, Amaranthus retroflexus
Outline: as §1

AVEFA [4] = experiment: Pre-emergence herbicidal action against AVEFA; type: in vivo, Avena fatua; settings: pre-emergence
Outline: as §1

ECHCG [5] = experiment: Pre-emergence herbicidal action against ECHCG; type: in vivo, Echinochloa crus-galli; settings: 80 g/ha
Outline: as §1

MATIN [6] = experiment: Pre-emergence herbicidal action against MATIN; type: in vivo, Matricaria inodora
Outline: as §1

SETVI [7] = experiment: Pre-emergence herbicidal action against SETVI; type: in vivo, Setaria viridis
Outline: as §1

VIOTR [8] = experiment: Pre-emergence herbicidal action against VIOTR; type: in vivo, Viola tricolor
Outline: as §1

DIGSA [9] = experiment: Pre-emergence herbicidal action against DIGSA; type: in vivo, Digitaria sanguinalis
Outline: as §1

ABUTH [10] = experiment: Post-emergence herbicidal action against ABUTH; type: in vivo, Abutilon theophrasti; settings: visual assessment about 3 weeks after treatment vs untreated controls
Outline: (§2)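 Foliar application at one-leaf stage of formulated test compounds, aqueous spray at 600–800 l/ha with 0.2% wetting agent. Greenhouse, optimal conditions, ~3 weeks; damage scored visually in % relative to untreated plants.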

AVEFA [11] = experiment: Post-emergence herbicidal action against AVEFA; type: in vivo, Avena fatua; settings: visual assessment about 3 weeks after treatment, 100% = plants have died, 0% = like control plants
Outline: as §2

ECHCG [12] = experiment: Post-emergence herbicidal action against ECHCG; type: in vivo, Echinochloa crus-galli
Outline: as §2

MATIN [13] = experiment: Post-emergence herbicidal action against MATIN; type: in vivo, Matricaria inodora; settings: dosage 20 g/ha
Outline: as §2

PHBPU [14] = experiment: Post-emergence herbicidal action against PHBPU; type: in vivo, Pharbitis purpurea; settings: dosage 20 g/ha
Outline: as §2

POLCO [15] = experiment: Post-emergence herbicidal action against POLCO; type: in vivo, Polygonum convolvulus; settings: dosage 20 g/ha
Outline: as §2

SETVI [16] = experiment: Post-emergence herbicidal action against SETVI; type: in vivo, Setaria viridis
Outline: as §2

PHBPU [17] = experiment: Pre-emergence herbicidal action against PHBPU; type: in vivo, Pharbitis purpurea; settings: Ipomoea purpurea, 504 h, dosage 80 g/ha
Outline: as §1

POLCO [18] = experiment: Pre-emergence herbicidal action against POLCO; type: in vivo, Polygonum convolvulus; settings: Fallopia convolvulus, 504 h, dosage 80 g/ha
Outline: as §1

VERPE [19] = experiment: Pre-emergence herbicidal action against VERPE; type: in vivo, Veronica persica; settings: dosage 80 g/ha
Outline: as §1

ALOMY [20] = experiment: Post-emergence herbicidal action against ALOMY; type: in vivo, Alopecurus myosuroides; settings: Alopecurus myosuroides, 504 h, dosage 20 g/ha, visual assessment about 3 weeks after treatment vs untreated controls
Outline: as §2

AMARE [21] = experiment: Post-emergence herbicidal action against AMARE; type: in vivo, Amaranthus retroflexus; settings: 20 g/ha, visual assessment about 3 weeks after treatment, 100% = plants have died, 0% = like control plants
Outline: as §2

VERPE [22] = experiment: Post-emergence herbicidal action against VERPE; type: in vivo, Veronica persica; settings: Veronica persica, 504 h, 20 g/ha
Outline: as §2

VIOTR [23] = experiment: Post-emergence herbicidal action against VIOTR; type: in vivo, Viola tricolor
Outline: as §2

DIGSA [24] = experiment: Post-emergence herbicidal action against DIGSA; type: in vivo, Digitaria sanguinalis; settings: Digitaria sanguinalis, 504 h
Outline: as §2

STEME [25] = experiment: Pre-emergence herbicidal action against STEME; type: in vivo, Stellaria media
Outline: as §1

STEME [26] = experiment: Post-emergence herbicidal action against STEME; type: in vivo, Stellaria media; settings: 20 g/ha
Outline: as §2

[27] = 80 g/ha, scored visually after 3 weeks vs untreated controls (100% = plants have died, 0% = like control plants)
[28] = Setaria viridis, 504 h, dosage 20 g/ha

Cc1c(C(=O)Nc2nnnn2C)ccc(C(F)(F)F)c1C(=O)NCC1CC1 [Example 1-28]
100%: Pre-emergence action against ABUTH (herbicidal activity) (ABUTH [1]; [27]) | Pre-emergence action against AMARE in % (AMARE [3]; 20 g/ha, scored visually after 3 weeks vs untreated controls, 100% = plants have died, 0% = like control plants) | Pre-emergence action against AMARE in % (AMARE [3]; [27]) | Pre-emergence action against AVEFA in % (AVEFA [4]; 80 g/ha) | Pre-emergence action against ECHCG in % (ECHCG [5]) | Pre-emergence action against MATIN in % (MATIN [6]; dosage 20 g/ha) | Pre-emergence action against MATIN in % (MATIN [6]; dosage 80 g/ha) | Pre-emergence action against SETVI in % (SETVI [7]; dosage 80 g/ha) | Pre-emergence action against VIOTR in % (VIOTR [8]; dosage 20 g/ha) | Pre-emergence action against VIOTR in % (VIOTR [8]; dosage 80 g/ha) | Pre-emergence action against DIGSA in % (DIGSA [9]; dosage 20 g/ha) | Pre-emergence action against DIGSA in % (DIGSA [9]; dosage 80 g/ha)
80%: Post-emergence action against ABUTH in % (ABUTH [10]; dosage 5 g/ha) | Post-emergence action against ABUTH in % (ABUTH [10]; dosage 20 g/ha) | Post-emergence action at 5 g/ha against AVEFA in % (AVEFA [11]; 5 g/ha) | Post-emergence action at 20 g/ha against AVEFA in % (AVEFA [11]; 20 g/ha) | Post-emergence action against ECHCG in % (ECHCG [12]; dosage 5 g/ha) | Post-emergence action against MATIN in % (MATIN [13]) | Post-emergence action against POLCO in % (POLCO [15]) | Post-emergence action against SETVI in % (SETVI [16]; dosage 5 g/ha) | Post-emergence action against SETVI in % (SETVI [16]; dosage 20 g/ha)
90%: Pre-emergence action against ABUTH (herbicidal activity in percent) (ABUTH [1]; dosage 20 g/ha, scored visually after 3 weeks vs untreated controls, 100% = plants have died, 0% = like control plants) | Pre-emergence action against ALOMY (herbicidal activity) (ALOMY [2]) | Post-emergence action against ECHCG in % (ECHCG [12]; dosage 20 g/ha) | Post-emergence action against PHBPU in % (PHBPU [14])

CNC(=O)c1c(C(F)(F)F)ccc(C(=O)Nc2nnnn2C)c1Br [Example 1-207]
90%: pest or weed control at 80 g/ha (AVEFA [4]; Avena fatua, 504 h, 80 g/ha) | pest or weed control at 80 g/ha (ECHCG [5]; Echinochloa crus-galli, 504 h) | pest or weed control at 20 g/ha (MATIN [6]; Tripleurospermum inodorum, 504 h, dosage 20 g/ha) | pest or weed control at 80 g/ha (POLCO [18]) | pest or weed control at 20 g/ha (ABUTH [10]; Abutilon theophrasti, 504 h, dosage 20 g/ha) | pest or weed control at 20 g/ha (ALOMY [20]) | pest or weed control at 20 g/ha (MATIN [13]; Tripleurospermum inodorum, 504 h) | pest or weed control at 20 g/ha (VERPE [22]) | pest or weed control at 5 g/ha (DIGSA [24]; 5 g/ha)
100%: pest or weed control at 80 g/ha (ABUTH [1]; Abutilon theophrasti, 504 h, 80 g/ha, scored visually after 3 weeks vs untreated controls (100% = plants have died, 0% = like control plants)) | pest or weed control at 20 g/ha (ABUTH [1]; Abutilon theophrasti, 504 h, dosage 20 g/ha, scored visually after 3 weeks vs untreated controls, 100% = plants have died, 0% = like control plants, read-out: Pre-emergence action against ABUTH (herbicidal activity in percent)) | pest or weed control at 80 g/ha (ALOMY [2]; Alopecurus myosuroides, 504 h) | pest or weed control at 20 g/ha (AMARE [3]; Amaranthus retroflexus, 504 h, 20 g/ha, scored visually after 3 weeks vs untreated controls, 100% = plants have died, 0% = like control plants) | pest or weed control at 80 g/ha (AMARE [3]; Amaranthus retroflexus, 504 h, 80 g/ha, scored visually after 3 weeks vs untreated controls, 100% = plants have died, 0% = like control plants) | pest or weed control at 80 g/ha (MATIN [6]; Tripleurospermum inodorum, 504 h, dosage 80 g/ha) | pest or weed control at 20 g/ha (SETVI [7]; [28]) | pest or weed control at 80 g/ha (SETVI [7]; Setaria viridis, 504 h, dosage 80 g/ha) | pest or weed control at 80 g/ha (VERPE [19]; Veronica persica, 504 h) | pest or weed control at 20 g/ha (VIOTR [8]; Viola tricolor, 504 h, dosage 20 g/ha) | pest or weed control at 80 g/ha (VIOTR [8]; Viola tricolor, 504 h, dosage 80 g/ha) | pest or weed control at 20 g/ha (DIGSA [9]; Digitaria sanguinalis, 504 h, dosage 20 g/ha) | pest or weed control at 80 g/ha (DIGSA [9]; Digitaria sanguinalis, 504 h, dosage 80 g/ha) | pest or weed control at 20 g/ha (AMARE [21]; Amaranthus retroflexus, 504 h) | pest or weed control at 20 g/ha (POLCO [15]; Fallopia convolvulus, 504 h) | pest or weed control at 5 g/ha (SETVI [16]; Setaria viridis, 504 h, dosage 5 g/ha) | pest or weed control at 20 g/ha (SETVI [16]; [28]) | pest or weed control at 5 g/ha (VIOTR [23]; Viola tricolor, 504 h, 5 g/ha) | pest or weed control at 20 g/ha (VIOTR [23]; Viola tricolor, 504 h, 20 g/ha) | pest or weed control at 20 g/ha (DIGSA [24]; 20 g/ha)
80%: pest or weed control at 20 g/ha (AVEFA [4]; Avena fatua, 504 h, 20 g/ha, scored visually after 3 weeks, 100% = plants have died, 0% = like control plants) | pest or weed control at 80 g/ha (PHBPU [17]) | pest or weed control at 5 g/ha (ABUTH [10]; Abutilon theophrasti, 504 h, dosage 5 g/ha) | pest or weed control at 20 g/ha (ECHCG [12]; Echinochloa crus-galli, 504 h, dosage 20 g/ha) | pest or weed control at 20 g/ha (PHBPU [14]; Ipomoea purpurea, 504 h)

CCCn1nnnc1NC(=O)c1ccc(S(C)(=O)=O)c(C(=O)NC2CC2)c1Cl [Example 3-125]
80%: Pre-emergence action against AVEFA in % (AVEFA [4]; 80 g/ha) | Pre-emergence action against VERPE in % (VERPE [19]) | Pre-emergence action against DIGSA in % (DIGSA [9]; dosage 80 g/ha) | Post-emergence action against ABUTH in % (ABUTH [10]; dosage 20 g/ha) | Post-emergence action against POLCO in % (POLCO [15]) | Post-emergence action against STEME in % (STEME [26]) | Post-emergence action against VIOTR in % (VIOTR [23]; 20 g/ha)
90%: Pre-emergence action against STEME in % (STEME [25]; dosage 20 g/ha) | Post-emergence action at 20 g/ha against AMARE in % (AMARE [21])
100%: Pre-emergence action against ABUTH (herbicidal activity) (ABUTH [1]; [27]) | Pre-emergence action against AMARE in % (AMARE [3]; [27]) | Pre-emergence action against MATIN in % (MATIN [6]; dosage 20 g/ha) | Pre-emergence action against MATIN in % (MATIN [6]; dosage 80 g/ha) | Pre-emergence action against STEME in % (STEME [25]; dosage 80 g/ha) | Pre-emergence action against VIOTR in % (VIOTR [8]; dosage 80 g/ha)
